# Measured values reported in patent US20170281779A1, “METHOD OF TREATING PATIENTS NON-RESPONSIVE TO PALONOSETRON” (Heron Therapeutics, Inc., priority 2013, published 2017).
# Key:
# [1] = system: chemotherapy-induced nausea and vomiting (CINV); assay: Clinical study of complete response (absence of emetic episodes) in chemotherapy patients; Cycle 1 palonosetron, Cycle 2 granisetron semi-solid delivery vehicle; assay type: in vivo, human; conditions: Cycle 1, palonosetron 0.25 mg intravenous
# Procedure: As described in Example 2, the patients in the study were undergoing either a moderately emetogenic chemotherapy regimen or a highly emetogenic chemotherapy regimen. In a first cycle of the study, the patients were treated with (i) 5 mg of granisetron in a semi-solid drug delivery vehicle, administered subcutaneously; (ii) 10 mg of granisetron in a semi-solid drug delivery vehicle, administered subcutaneously; or (iii) palonosetron, 0.25 mg administered intravenously. Patients who received palonosetron in Cycle 1 and remained on study were re-randomized for treatment with 5 mg or 10 mg of granisetron, administered as comprised within a semi-solid drug delivery vehicle via subcutaneous injection of 250 mg vehicle or 500 mg vehicle.
# In Cycle 1 of the study, 1395 patients receiving single doses of a moderately emetogenic chemotherapy (MEC) regimen or a highly emetogenic chemotherapy (HEC) regimen were randomized for treatment with one of three regimens: a semi-solid drug delivery vehicle comprising granisetron, administered subcutaneously to provide (i) 5 mg granisetron or (ii) 10 mg granisetron (via subcutaneous injection of 250 mg or 500 mg vehicle, respectively) or (iii) palonosetron, 0.25 mg intravenous. The palonosetron dose administered was the recommended dose of palonosetron (ALOXI®) for treatment of chemotherapy-induced nausea and vomiting in adults. Palonosetron, when administered intravenously at the above-dose, is indicated in adults for the prevention of both acute and delayed vomiting associated with initial and repeated courses of moderately emetogenic chemotherapy, and acute nausea and vomiting associated with initial and repeat courses of highly emetogenic chemotherapy.
# Patients who received palonosetron in Cycle 1 and remained in the study were re-randomized for treatment in Cycle 2 with 5 mg or 10 mg granisetron administered subcutaneously as 250 mg or 500 mg, respectively, of the semi-solid drug delivery vehicle. […]
# 5-HT3 receptors = target: T1, 5-HT3 receptors (Homo sapiens, UniProt P46098); conditions: compared to first generation 5-HT3 receptor antagonists dolasetron, granisetron and ondansetron; cited from earlier work
# T1 sequence (P46098 24-478): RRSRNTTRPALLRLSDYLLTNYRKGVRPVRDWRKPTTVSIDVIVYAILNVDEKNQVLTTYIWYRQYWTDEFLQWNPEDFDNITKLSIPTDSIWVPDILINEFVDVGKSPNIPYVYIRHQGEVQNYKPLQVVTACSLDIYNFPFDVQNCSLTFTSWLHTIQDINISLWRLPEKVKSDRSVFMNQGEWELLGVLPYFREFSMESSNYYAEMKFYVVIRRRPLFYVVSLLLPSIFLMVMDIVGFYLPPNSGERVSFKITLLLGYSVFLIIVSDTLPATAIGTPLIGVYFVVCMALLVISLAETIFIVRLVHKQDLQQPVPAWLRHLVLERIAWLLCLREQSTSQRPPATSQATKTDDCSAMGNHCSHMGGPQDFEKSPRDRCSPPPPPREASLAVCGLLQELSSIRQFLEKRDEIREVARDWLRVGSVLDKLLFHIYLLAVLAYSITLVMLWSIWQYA
# [2] = cited from earlier work
# [3] = compared to first generation 5-HT3 receptor antagonists dolasetron, granisetron and ondansetron
smiles,measurement,setting,value
O=C1c2cccc3c2[C@H](CCC3)CN1[C@@H]1CN2CCC1CC2 [palonosetron],overall (0-120 hour) failures,[1]; HEC patients (94/238),39.5%
same,overall (0-120 hour) failures,[1]; MEC patients (100/208),48.1%
same,overall (0-120 hour) failures,[1]; all 446 patients (MEC + HEC),43.5%
same,binding affinity to the 5-HT3 receptors,5-HT3 receptors,higher binding affinity
same,safety profile,[2]; as reported in the literature (Eisenberg et al. 2004),excellent safety profile
same,half-life,[2]; [3],significantly longer half-life
same,potency,[2]; [3],higher potency
